The source of these data is patent US8765972B2 (priority 2009, dated 2014).

The subject of data set [1] is Capan-1 human pancreatic cancer tumors. Description: In vivo efficacy, Capan-1 BRCA-2 mutated mouse model, single agent. The settings on record: oral, schedule 1-10 daily. The arrangement: species or system Balb, athymic Nu/Nu male mice.
From the text: (§1) Balb, athymic Nu/Nu male mice, from Harlan (Italy), were maintained in agreement with the European Communities Council Directive no. 86/609/EEC concerning the protection of animals used for experimental or other scientific purposes, in cages with paper filter cover, food and bedding sterilized and acidified water. Fragments of Capan-1 human pancreatic cancer tumors were implanted subcutaneously. […] Each group included seven animals. The treatment started one day after randomization. Compound of formula (I) was administered by oral route as a methocel suspension at the indicated doses and times. Tumor dimension was measured regularly by calipers during the experiments and tumor mass was calculated as described in Simeoni M. et al., Cancer Res 64, 1094-1101 (2004).
The next data set is described as follows: in vivo. The settings on record: male, Balb, Nu/Nu, mouse, 10 mg/kg; for Vd / clearance: iv; for AUC(0-t) / half-life: po.
For data set [2], the system named is PAR formation in HeLa cells. Kind of data set: cells. The settings on record: Homo sapiens, read-out: PAR assay (IC50).
Method: Cellular PAR levels were measured by immunocytochemistry, and quantified using an ArrayScan vTi instrument (Cellomics Thermo Scientific). […] Test compounds were then added at the required concentration for 30'. […] After 3 washes in PBS, wells incubated in PBS (w/v) 5% FBS 0.05% Tween20 containing 2 μg/mL Cy2-conjugated Goat anti mouse secondary antibody (Amersham Pharmacia Biotech cat. […] At least 10 fields, corresponding to at least 900 cells, were read for each well. […] X is the logarithm of concentration. IC50 is the response; IC50 starts at Bottom and goes to Top with a sigmoid shape.
A further data set addresses PARP-2 (Homo sapiens (Human), UniProt Q9UGN5). The following applies: read-out: PARP-2 (DC50); probe compound P1.
The target in data set [3] is T1, PARP-1 (Homo sapiens (Human), UniProt P09874). Kind of data set: biochemical. The settings on record: PARP-1 (Kd).
T1 sequence (P09874 whole entry): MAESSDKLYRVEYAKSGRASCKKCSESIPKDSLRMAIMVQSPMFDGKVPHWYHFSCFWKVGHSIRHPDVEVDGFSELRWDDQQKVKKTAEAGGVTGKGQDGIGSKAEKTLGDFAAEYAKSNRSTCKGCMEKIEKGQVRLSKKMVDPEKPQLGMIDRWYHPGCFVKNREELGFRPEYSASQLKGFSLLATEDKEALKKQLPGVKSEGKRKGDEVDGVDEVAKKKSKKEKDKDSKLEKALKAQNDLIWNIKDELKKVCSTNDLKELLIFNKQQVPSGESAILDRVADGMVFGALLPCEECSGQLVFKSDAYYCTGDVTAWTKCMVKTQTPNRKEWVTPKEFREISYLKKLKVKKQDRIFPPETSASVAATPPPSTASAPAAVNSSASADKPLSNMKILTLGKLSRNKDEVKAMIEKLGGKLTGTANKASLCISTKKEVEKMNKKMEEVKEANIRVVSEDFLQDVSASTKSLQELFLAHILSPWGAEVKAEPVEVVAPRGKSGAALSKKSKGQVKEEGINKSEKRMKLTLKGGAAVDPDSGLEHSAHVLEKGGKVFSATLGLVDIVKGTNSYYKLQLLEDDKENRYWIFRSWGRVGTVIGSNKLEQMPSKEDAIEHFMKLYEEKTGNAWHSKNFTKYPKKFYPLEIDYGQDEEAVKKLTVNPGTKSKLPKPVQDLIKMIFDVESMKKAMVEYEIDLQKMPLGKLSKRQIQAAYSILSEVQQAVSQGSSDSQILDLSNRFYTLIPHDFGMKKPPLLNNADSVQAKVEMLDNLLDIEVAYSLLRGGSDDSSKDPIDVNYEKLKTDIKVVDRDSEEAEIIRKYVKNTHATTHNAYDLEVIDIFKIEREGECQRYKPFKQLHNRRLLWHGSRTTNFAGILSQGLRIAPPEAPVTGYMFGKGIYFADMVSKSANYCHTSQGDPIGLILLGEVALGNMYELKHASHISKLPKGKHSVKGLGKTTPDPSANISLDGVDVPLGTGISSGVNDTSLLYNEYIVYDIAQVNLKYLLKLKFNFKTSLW
Method: (§2) Affinity evaluation of the tested compounds and their selectivity with respect to the different PARP isoforms of interest was assessed in a displacement assay.
(§3) The polarization signal can be measured, e.g., by a plate reader such as the Saphire2 (Tecan). The displacement ability of the test compound is in correlation with the compound affinity for the NAD pocket of the enzyme.
(§4) In all of the experiments, the polarization signal was measured using a Saphire2 plate reader (Tecan). Data analysis was performed using Dynafit software. In particular, titration data were fitted to the following equilibria: Enzyme+probe<==>Complex Enzyme-probe, while displacement data were fitted to the following equilibria: Enzyme+probe<==>Complex Enzyme-probe, Enzyme+Compound<==>Complex Enzyme-Compound, whereby binding of probe and compound on the enzyme are mutually exclusive (pure competitive mechanism). Displacement data were also fitted using Excell spreadsheet (Microsoft Inc. Seattle, USA) to a four parameter logistic model (4PL), or Hill-Slope model to calculate DC50s where the DC50 value represents the compound concentration at which the polarization signal is diminished by 50% compared to untreated controls.
(§5) In agreement, affinity binding constants (KD) were determined by fitting with a pure competitive mechanism. KD values, are the average of three independent experiments.
The target of data set [4] is T1, PARP-1. The following applies: read-out: PARP-1 (DC50).
Method: as §2, §3, §4, §5
The next data set deals with PARP-3 (Homo sapiens (Human), UniProt Q9Y6F1). The following applies: read-out: PARP-3 (DC50); probe compound P1.
PARP-3, sequence (Q9Y6F1 whole entry): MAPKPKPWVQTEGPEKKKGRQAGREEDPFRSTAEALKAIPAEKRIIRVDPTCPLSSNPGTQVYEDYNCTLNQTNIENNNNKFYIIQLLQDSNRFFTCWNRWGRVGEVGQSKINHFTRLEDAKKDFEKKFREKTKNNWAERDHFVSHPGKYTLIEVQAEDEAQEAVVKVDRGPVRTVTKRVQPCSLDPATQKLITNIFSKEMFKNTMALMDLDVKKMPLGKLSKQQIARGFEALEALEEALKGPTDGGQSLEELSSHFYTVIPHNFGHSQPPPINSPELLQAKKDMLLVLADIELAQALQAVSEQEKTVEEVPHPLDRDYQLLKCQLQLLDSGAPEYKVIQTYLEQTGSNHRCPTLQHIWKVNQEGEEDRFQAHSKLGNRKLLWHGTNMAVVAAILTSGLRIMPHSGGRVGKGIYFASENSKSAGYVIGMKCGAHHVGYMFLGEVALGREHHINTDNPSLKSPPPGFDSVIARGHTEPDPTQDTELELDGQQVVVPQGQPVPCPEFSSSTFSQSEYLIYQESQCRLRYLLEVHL
For data set [5] the following is noted: male, Balb, Nu/Nu, mouse, in vivo, 10 mg/kg.
Method: The compounds were formulated in 10% tween 80/dextrose for intravenous bolus administration while oral administrations were performed using the compounds formulated in 0.5% methylcellulose. […] Plasma samples were prepared by plasma proteins precipitation adding 200 μL of methanol to 10 μL of plasma in a 96 well plate. […] The supernatant was considered as final extract and injected onto the LC-MS-MS system (HPLC system: Hewlett Packard 1100 series using Atlantis HILIC Silica 50*2.1 mm 5.0 μm analytical column; MS instrument: Perkin Elmer SCIEX API 2000 and ionization performed with Turbo Ion Spray in positive ion mode). Lower limit of quantification is 5.0 ng/mL, upper limit of quantification is 10000 ng/mL. Analysis was performed using the Watson package (version 6.4.0.04) and Excel spreadsheet (Microsoft Inc. Seattle, USA). Non-compartmental method (linear trapezoidal rule and linear regression analysis of natural log-transformed plasma concentrations vs. time data) was used. After intravenous dosing, Co was set equal to Co 083 Absolute bioavailability (F) was calculated from the ratio of average oral to IV (intravenous) dose-normalized plasma AUC (area under curve) values.
For data set [6] the following is noted: male, Balb, athymic Nu/Nu, mouse, in vivo, po.
From the text: as §1
The test system of data set [7] is ovarian cancer patients with confirmed BRCA-1 mutations. The following applies: phase I, monotherapy, preliminary data; cited from earlier work.

As a reminder, the Vd is a proportionality between amount in the body and measured concentration, not a real space. The term clearance denotes a measure of how efficiently the substance is removed, as volume per time. Low values mean a low capacity for elimination, high ones a high capacity for elimination. In general, AUC(0-t) refers to exposure summed from dosing to a finite time, without extrapolation to infinity. A lower AUC(0-t) goes with less exposure. The half-life is the time in which the quantity being followed falls by half. Low values mean fast loss, high ones slow loss. In general, IC50 refers to the point on the concentration scale where inhibition reaches its midpoint. The term Kd denotes the constant that tells how readily two partners part at equilibrium.

Like-named read-outs stand apart in the source and are kept apart here.

PARP-2, sequence (Q9UGN5 whole entry): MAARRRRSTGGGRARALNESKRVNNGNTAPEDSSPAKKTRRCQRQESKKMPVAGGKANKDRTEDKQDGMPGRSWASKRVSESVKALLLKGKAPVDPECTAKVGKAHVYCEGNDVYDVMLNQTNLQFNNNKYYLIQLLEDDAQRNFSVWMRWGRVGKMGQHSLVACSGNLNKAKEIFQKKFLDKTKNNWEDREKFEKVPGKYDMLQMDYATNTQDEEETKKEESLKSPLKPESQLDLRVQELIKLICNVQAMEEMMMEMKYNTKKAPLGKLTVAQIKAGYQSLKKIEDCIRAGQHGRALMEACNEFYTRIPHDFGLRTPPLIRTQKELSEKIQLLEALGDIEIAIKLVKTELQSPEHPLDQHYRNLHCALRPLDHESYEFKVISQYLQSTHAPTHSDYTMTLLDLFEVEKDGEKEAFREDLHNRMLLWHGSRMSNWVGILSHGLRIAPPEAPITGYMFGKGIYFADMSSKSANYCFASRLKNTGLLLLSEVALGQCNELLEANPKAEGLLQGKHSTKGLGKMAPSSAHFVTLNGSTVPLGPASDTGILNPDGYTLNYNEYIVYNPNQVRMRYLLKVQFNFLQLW
Method for PARP-2: as §2, §3, §4, §5
Method for PARP-3: as §2, §3, §4, §5

With `CC1c2cccc(C(N)=O)c2C(=O)N1C1CCN(C2CCCCC2)CC1` (racemic) [Compound 3, 2-(1-Cyclohexylpiperidin-4-yl)-1-methyl-3-oxo-2,3-dihydro-1H-isoindole-4-carboxamide], the “Max TGI (%)” value in data set [1] (100 mg/kg) is 51%. In “in vivo”, this molecule gave a Vd of 3.61 L/kg, a clearance of 32.6 mL/min/kg, an exposure AUC(0-t) of 13.5 µM·h and a half-life of 182 min. In data set [2], the IC50 worked out at 280 nM. Also, the DC50 at PARP-2 is over 10 µM. The same molecule showed a Kd at PARP-1 [3] of under 10 nM. In addition, the DC50 at PARP-1 [4] was under 250 nM. In addition, on PARP-3, the DC50 was over 10 µM. Further, the “C-max (oral)” value in data set [5] worked out at 2.53 µM. Also, in data set [6] (100 mg/kg), the “Toxicity (body weight reduction, mice affected out of 7 treated)” value was 0/7.

As for `O=C(c1cc(Cc2n[nH]c(=O)c3ccccc23)ccc1F)N1CCN(C(=O)C2CC2)CC1` [AZD2281], in data set [7], the partial responses is on record as 4 out of 10.

On to `C[C@H]1c2cccc(C(N)=O)c2C(=O)N1C1CCN(C2CCCCC2)CC1` [Compound 4, (1S)-2-(1-Cyclohexylpiperidin-4-yl)-1-methyl-3-oxo-2,3-dihydro-1H-isoindole-4-carboxamide], for which the “Max TGI (%)” value in data set [1] (75 mg/kg) is on record as 52%. In “in vivo”, this molecule had a Vd of 6.8 L/kg, a clearance of 53.4 mL/min/kg, an AUC(0-t) of 4.93 µM·h and a half-life of 157 min. In data set [2], the IC50 is 150 nM. Besides, the DC50 on PARP-2 is over 10 µM. On PARP-1 [3], this molecule had an equilibrium dissociation constant (Kd) of under 10 nM. Besides, on PARP-1 [4], the DC50 is under 250 nM. On PARP-3, the DC50 is over 10 µM. The “C-max (oral)” value in data set [5] amounted to 1.37 µM. In data set [6] (75 mg/kg), the “Toxicity (body weight reduction, mice affected out of 7 treated)” value is 0/7.
